Data: US5633230A, “Treatment of cytomegalovirus infection” (priority 1994, dated 1997)
≈ marks a conversion by molar mass, not a printed value.

Columns and labels:
CMV strain Towne = format: cell-based, human CMV; details: HFF, plaque reduction, without 24 h drug pretreatment
Description: (§1) The following procedures were then used to determine inhibitory effects of AV-9 on the replication of CMV. […] This was accomplished by diluting the stock peptide solution in growth medium (10% fetal bovine serum and 10 μg/ml gentamicin in Dulbecco's MEM (DMEM)) used to overlay the monolayers.
(§2) […] Virus was then allowed to adsorb for 1 hour at 37° C. The virus inoculum was removed and the monolayers were overlayed with DMEM containing 2% FBS, 10 ug/ml gentamicin and a specified concentration of AV-9. Virus was next allowed to replicate for 7 to 10 days until the plaques were judged to be well developed, and then the monolayers were fixed and stained with a solution of 1% crystal violet in 1% formaldehyde,70% ethanol. Finally, plaques (each representing a single viable virion) were counted and checked microscopically.
(§3) In a like manner, plaque reduction assays were also performed against other CMV strains and another CMV host, with comparison against ganciclovir (GCV) and foscarnet (FCV).

CMV strain AD-169 [1] = assay: plaque reduction assay, CMV AD-169 in HFF cells; format: cell-based, human CMV; details: CMV AD-169, HFF, without 24 h drug pretreatment
Description: as §1, §2, §3

[2] = toxicity control mice, immunosuppressed, uninfected; details: for Mean Body Weight Change: start of treatment to 24 hr after final treatment; for Surv/Total: toxicity controls
Description: The mice were immunosuppressed by intraperitoneal (i.p.) injection with 100 mg/kg/day of cyclophosphamide administered on days -1, +3, +6, +10, +14 and +18 relative to virus inoculation. […] In a second portion of the study, the compound was administered i.p. in a dose of 0.1 mg/kg/day once daily from day -2 through +10. Ganciclovir in a dose of 50 mg/kg/day was injected i.p. once daily for 10 days beginning 24 hr post-virus exposure (days +1→+10). A total of 15 infected mice/dose were used. […] Five toxicity control mice were used at each dose; these mice were treated in parallel with the infected mice, and were weighed on the initial day of treatment and again 24 after the final treatment. […] Normal controls were weighed and held in parallel with the toxicity controls.

[3] = mouse, in vivo
Description: Ten mice were injected intravenously in the tail vein with 0.25 mL of a solution of 26 μg of ^14 C-labelled compound in 10 mL PBS, and ten mice were given the same dose by subcutaneous injection in the abdomen. One mouse from each group was sacrificed at the time points noted in FIGS. 1 and 2, and the noted organs were weighed and digested to homogeneity for scintillation counting. Counts were measured and used to calculate the amount and concentration of drug in each organ.

physchem = details: water
CMV strain AD-169 [4] = assay: CPE assay, CMV AD-169 in HFF cells; format: cell-based; details: CMV AD-169, HFF (human foreskin fibroblast), without 24 h drug pretreatment
Excerpt: *CPE assay, all others are plaque reduction assays.

HCMV strain AD-169 = assay: drug combination plaque reduction study (MacSynergy); format: cell-based; details: human CMV-infected MRC-5 cells, plaque counts
Description: For use in this study, HCMV strain AD-169 was obtained from the American Type Culture Collection, Rockville, Md. and ganciclovirresistant clinical isolate of HCMV, strain D16, was obtained from Kenneth D. Thompson, Loyola University Medical Center, Maywood, Ill. Host MRC-5 cells were cultured in a medium of Basal Medium Eagle (BME) (GIBCO), fetal bovine serum (FBS) (Hyclone Laboratories), 0.035% NaHCO3 and without antibiotics.
Test medium for dilution of virus and for preparation and dilution of compounds was Dulbecco's modified Eagle medium (DMEM), 2% FBS, 0.1% NaHCO3, 50 μg gentamicin/ml.
For drug combination experiments, each of AV-9, DHPG, foscarnet, and […] was prepared in test medium at double the highest concentration used. Each of these compound preparations was then diluted by serial 2-fold dilutions in test medium (except for AZT, which was diluted by serial half-log dilutions).
Growth medium was decanted from established monolayers of MRC-5 cells in 24-well tissue culture plates. Compound dilutions were placed in designated wells of the plates at 0.8 ml/well, with test medium only placed in virus control or cell control wells, and the plates were placed at 37° C. Four wells were used for each different compound dilution. After 24 hr of pre-treatment incubation, the medium was aspirated from each well of the plates. One ml of virus, diluted in test medium was placed in each well except those to be used for cell controls or those to be used for toxicity controls. One ml of sterile test medium was placed in each of these cell or toxicity control wells. The plates were centrifuged at 2200 rpm for 30 minutes at room temperature to allow the virus to adsorb. Medium was aspirated from each well of the plates. The proper individual compound concentrations or combinations were placed in test wells (0.8 ml/well, 4 wells/dilution) or in toxicity control wells. Test medium without compound was added (0.8 ml/well) to each cell control and virus control well. All plates were incubated at 37° C. in a moist atmosphere of 5% CO2, 95% air. […] After 15 minutes, the stain was removed, cells were rinsed in tap water until the water was clear, and the plates were inverted and dried at room temperature. Plaques were counted by use of a dissecting microscope. The plaque counts were entered in the MacSynergy™ program of Prichard and Shipman and 3-D plots were made.

Structure (SMILES): CC(=O)N[C@H](CCCNC(=N)N)C(=O)N[C@H](CCCNC(=N)N)C(=O)N[C@H](CCCNC(=N)N)C(=O)N[C@H](CCCNC(=N)N)C(=O)N[C@H](CCCNC(=N)N)C(=O)N[C@H](CCCNC(=N)N)C(=O)N[C@H](CCCNC(=N)N)C(=O)N[C@H](CCCNC(=N)N)C(=O)N[C@H](CCCNC(=N)N)C(N)=O [AV-9, acetyl-[D-Arg]9 -NH2]
- IC50 (CMV strain Towne): 8.7 µM
- IC50 (CMV strain AD-169 [1]): 12 µM
- Mean Body Weight Change ([2]; 0.07 mg/kg/day i.p. every other day): 2.7 g
- Mean Body Weight Change ([2]; 0.1 mg/kg/day i.p. daily days -2 to +10): 3.1 g
- Mean Body Weight Change ([2]; 0.2 mg/kg/day i.p. every other day): 2.2 g
- Mean Body Weight Change ([2]; 0.7 mg/kg/day i.p. every other day): 2.4 g
- Mean Body Weight Change ([2]; 2.0 mg/kg/day i.p. every other day): 1.9 g
- other signs of toxicity (hunching, prostration, ruffled fur, tremors) ([2]; all doses): No other signs of toxicity
- toxicity, overall assessment ([2]; all doses, Table 3): reasonably non-toxic
- Surv/Total ([2]; 0.07 mg/kg/day i.p., days -2,0,+2,+4,+6,+8,+10): 5/5
- Surv/Total ([2]; 0.1 mg/kg/day i.p., daily days -2 through +10): 5/5
- Surv/Total ([2]; 0.2 mg/kg/day i.p., days -2,0,+2,+4,+6,+8,+10): 5/5
- Surv/Total ([2]; 0.7 mg/kg/day i.p., days -2,0,+2,+4,+6,+8,+10): 5/5
- Surv/Total ([2]; 2.0 mg/kg/day i.p., days -2,0,+2,+4,+6,+8,+10): 5/5
- speed of distribution to tissues [3]: rapid distribution of drug to tissues
- tissue distribution, organs with highest levels [3]: highest and most prolonged levels are attained in the liver, followed by the kidneys and spleen
- solubility (physchem): ~1000 mg/mL (≈ 683 mM)
- IC50 (CMV strain AD-169 [4]): 5.8 µM
- antagonism in combination with phosphonoformic acid (foscarnet) (HCMV strain AD-169): insignificant amount of antagonism
- synergy in combination with AZT (HCMV strain AD-169): No synergy
- synergy in combination with DHPG (HCMV strain AD-169): intense synergy
- synergy in combination with phosphonoformic acid (foscarnet) (HCMV strain AD-169): moderate amount of synergy
